Reference: article PMC4748415, “Impact of different cell penetrating peptides on the efficacy of antisense therapeutics for targeting intracellular pathogens” (Scientific Reports, 2016)
Values joined by “and” are separate entries in the source; they are usually repeats but may differ in a detail not shown here. Equal entries are not always repeated. “Also recorded” adds a separate entry of the source. Where two headings read alike, the source gives them in different places. Marks after values point to notes of the source that are not given here.

How the values were obtained:
L. monocytogenes F4244 [1] = experiment: Concentration-dependent bacterial log reduction in pure culture; assay type: cell-based, Listeria monocytogenes; conditions: for Log CFU/ml: pure culture F4244, 16 hour incubation; for Log CFU reduction: relative to control, pure culture F4244
Method: (§1) The MICs of conjugated PNAs, free PNA, CPPs and untreated control against L. monocytogenes were determined using the broth microdilution method according to the Clinical and Laboratory Standards Institute (CLSI) guidelines with the following modifications. Briefly, low binding clear microcentrifuge tubes (USA scientific, Inc. Ocala, FL) were used in triplicates for each reaction instead of traditional 96-well plates. […] After a 16 hour incubation period (of test agent with bacteria), the number of viable bacteria was enumerated by serial dilution and counting on TSA plates. The MICs were repeated at least twice.

[2] = tested on: mitochondrial biogenesis in J774A.1 cells; experiment: Mitobiogenesis assay (In-Cell ELISA, COX-I/SDH-A); conditions: three days, tested at 0.1, 1, 10 and 20 μM, COX-I/SDH-A ratio
Method: To measure the effect of PNA on the mitochondrial biogenesis, In-Cell ELISA Kit (MitoSciences Inc., Eugene, OR, USA) was used as per the manufacturer’s instructions[54][55]. Briefly, J774A.1 cells were seeded (approximately 40,000 cells per well) in 96-well plates and allowed to adhere. […] Cells were allowed to grow for approximately 3 days. Media were removed and cells were washed with PBS, then fixed with 4% paraformaldehyde. After fixing, cells were washed with PBS and permeabilization and blocking processes were done according to the manufacturer’s instructions. Primary antibodies to detect the levels of two proteins (subunit I of Complex IV (COX-I), that is mitochondrial DNA (mtDNA)-encoded), and the 70 kDa subunit of Complex II (SDH-A), a nuclear DNA (nDNA)-encoded were added and incubated for overnight at 4 °C. After incubation, cells were washed with PBS and secondary antibodies were added and incubated at room temperature for one hour. After washing, the expression of SDH-A and COX-1 were measured at 405 nm and 600 nm wavelength, respectively. The ratio between COX-I and SDH-A was calculated and the percent of inhibition of mitochondrial biogenesis was determined.

hly = experiment: Real-Time qRT-PCR gene expression, hly; assay type: cell-based, L. monocytogenes F4244; conditions: 2 μM PTAT, 3.5 hours, 37 °C
L. monocytogenes F4244 [3] = experiment: Time kill assay; assay type: cell-based, Listeria monocytogenes; conditions: 12 hours; for time to complete eradication of Listeria: 32 μM PNA, 37 °C, samples every 2 hours, ~10^5 CFU/ml; for bactericidal or bacteriostatic activity: L. monocytogenes, time kill at 32 μM
Method: L. monocytogenes F4244 in logarithmic growth phase was diluted to ~10^5 CFU/ml and incubated with 32 μM of the five PNAs (in triplicates) at 37 °C for 12 hours. Samples were collected every two hours, serially diluted, and plated onto TSA plates. Plates were then incubated wat 37 °C for 24 hours before viable CFUs were determined.
Samples were collected every 20 minutes and processed as above.

L. monocytogenes F4244 [4] = experiment: Time kill assay; assay type: cell-based, Listeria monocytogenes; conditions: 8 μM PNA, 37 °C, samples every 20 minutes, inoculum 2.4 × 10^5 CFU/ml
plcA = experiment: Real-Time qRT-PCR gene expression, plcA; assay type: cell-based, L. monocytogenes F4244; conditions: 2 μM PTAT, 3.5 hours, 37 °C
[5] = tested on: L. monocytogenes F4244 inside infected J774A.1 cells; assay type: cell-based; conditions: 4 hours; for Log CFU/ml: intracellular F4244 in J774A.1; for Log CFU reduction: intracellular F4244 in J774A.1, versus control
[6] = tested on: L. monocytogenes J0161 in infected C. elegans; experiment: C. elegans infection model; conditions: 18 hours treatment; for Log CFUs/worm: 10 worms in triplicates; for Log CFUs reduction: versus water
Method: To test the efficacy of PNA in vivo we used Listeria-infected C. elegans. The temperature-sensitive sterile mutant strain C. elegans AU37 [sek-1(km4); glp-4(bn2) I] was used for this study. This strain is sterile at room temperature and can lay eggs only at 15 °C. Furthermore, mutation in the sek-1 gene of the p38 mitogen-activated protein kinase pathway (p38 MAPK pathway), makes this particular C. elegans strain more susceptible to Listeria infection[49][56]. Initially, the pathogenicity of three strains of Listeria (F4244, J0161 and ATCC19111) was tested in C. elegans as described before[24] to determine the most virulent strain to use for this study. […] Briefly, adult worms were grown for 5 days, at 15 °C (temperature that permits worms to lay eggs) on NGM agar plates seeded with a lawn of E. coli OP50. The eggs were harvested by bleaching[57] and maintained for 24 hours at room temperature with gentle agitation for hatching. Hatched larvae were transferred to a new NGM plate seeded with E. coli OP50 and were kept at room temperature for five days until worms reached the adult stage of growth. Adult worms were collected and washed three times with M9 media in a 1:10 ratio to remove E. coli before transfer to LB agar plates seeded with a lawn of L. monocytogenes J0161 for infection. After eight hours of infection, worms were collected and washed with M9 buffer five times before incubation with PNAs. Worms were transferred to low-binding microcentrifuge tubes (10 worms per tube). […] After treatment for 18 hours, worms were washed five times with M9 buffer. […] Samples were serially diluted and plated onto TSA plates containing 5 μg/ml nalidixic acid to select for Listeria.

plcB = experiment: Real-Time qRT-PCR gene expression, plcB; assay type: cell-based, L. monocytogenes F4244; conditions: 3.5 hours, 37 °C
[7] = tested on: clinical isolates of L. monocytogenes; assay type: cell-based, Listeria monocytogenes; conditions: for MIC50: concentration required to inhibit 50% of L. monocytogenes isolates (six isolates); for MIC: broth microdilution in low binding tubes, triplicates, 16 hour incubation
Method: as §1

rpoA = conditions: 3.5 hours, 37 °C
MRSA USA300 = experiment: MIC against MRSA in pure culture; assay type: cell-based; conditions: multiple of the Listeria MIC, data not shown
[8] = tested on: cytoplasmic membrane of L. monocytogenes F4244; experiment: Calcein leakage assay; assay type: cell-based, Listeria monocytogenes; conditions: 30 min exposure; PRXR 8 × MIC (8 μM), nisin 5 × MIC (10 μg/ml); fluorescence, n = 3
Method: To investigate the effect of PNA on the integrity of the Listeria cell membrane, the leakage of the preloaded fluorescent dye, calcein, was monitored and quantified as described before with a few modifications. Briefly, 20 ml of logarithmic growth phase (OD600 = 1.0, ~10^9 CFU/ml) L. monocytogenes F4244 was centrifuged and bacteria were resuspended in 9 ml of sterile PBS plus 1 ml of BHI. 3 μM of calcein AM dye was added to the bacterial suspension prior to covering the suspension with aluminum foil and incubating for one hour at 37 °C. After 10 minutes centrifugation at 3,000 × g, the supernatant was discarded. The calcein-loaded bacterial cells were resuspended in 30 ml of sterile PBS and 100 μL calcein-loaded bacteria were distributed in a 96-well microtiter plate (in triplicate). PRXR was added in a concentration equal to 8 × MIC (8 μM). Nisin 5 × MIC (10 μg/ml) and sterile water were used as positive and negative controls, respectively. Intensity of fluorescence (calcein leakage) was detected every 5 minutes for 30 minutes using a fluorescence plate reader (FLx800 model BioTek® Instruments, Inc. Winooski, Vermont) with the excitation and emission filters adjusted to 485 nm and 520 nm, respectively.

GRKKKRRQRRRYK-O-cgatcattcaaa-NH2 [PTAT]
Log CFU/ml (L. monocytogenes F4244 [1]; 1 µM PNA): 8.28±0.37 Log CFU/ml
Log CFU reduction (L. monocytogenes F4244 [1]; 1 µM PNA): 1.1 Log CFU
Log CFU/ml (L. monocytogenes F4244 [1]; 2 µM PNA): 5.94±0.42 Log CFU/ml
Log CFU reduction (L. monocytogenes F4244 [1]; 2 µM PNA): 3.45 Log CFU
Log CFU/ml (L. monocytogenes F4244 [1]; 4 µM PNA): Cleared
Log CFU reduction (L. monocytogenes F4244 [1]; 4 µM PNA): 9.39 Log CFU
Log CFU/ml (L. monocytogenes F4244 [1]; 8 µM PNA): Cleared
Log CFU reduction (L. monocytogenes F4244 [1]; 8 µM PNA): 9.39 Log CFU
Log CFU/ml (L. monocytogenes F4244 [1]; 16 µM PNA): Cleared
Log CFU reduction (L. monocytogenes F4244 [1]; 16 µM PNA): 9.39 Log CFU
Log CFU/ml (L. monocytogenes F4244 [1]; 32 µM PNA): Cleared
Log CFU reduction (L. monocytogenes F4244 [1]; 32 µM PNA): 9.39 Log CFU
inhibition of mitochondrial protein synthesis (mitobiogenesis) [2]: does not interfere with the mitochondrial protein synthesis process
downregulation of hly gene (hly): more than 50%
time to complete eradication of Listeria (L. monocytogenes F4244 [3]): ≤ 2 h
bactericidal or bacteriostatic activity (L. monocytogenes F4244 [3]): bactericidal activity
time to complete elimination of starting inoculum (L. monocytogenes F4244 [4]): ≤ 20 min
decrease of plcA gene expression (plcA): more than 70%
Log CFU/ml ([5]; 2 μM): 5.95 ± 0.02 Log CFU/ml
Log CFU reduction ([5]; 2 μM): 0.78 Log CFU
Log CFU/ml ([5]; 4 μM): 5.19 ± 0.33 Log CFU/ml
Log CFU reduction ([5]; 4 μM): 1.54* Log CFU
Log CFU/ml ([5]; 8 μM): 4.22 ± 0.11 Log CFU/ml
Log CFU reduction ([5]; 8 μM): 2.51* Log CFU
Log CFUs/worm ([6]; 16 µM): 3.04±0.36 Log CFUs/worm
Log CFUs reduction ([6]; 16 µM): 1.11 Log CFUs
Log CFUs/worm ([6]; 32 µM): 1.7±0.6 Log CFUs/worm
Log CFUs reduction ([6]; 32 µM): 2.67 Log CFUs
reduction in plcB gene expression (plcB; 1 μM PTAT): 55.9%
decrease of plcB gene expression (plcB; 2 μM PTAT): more than 70%
MIC50 [7]: 2 µM
MIC ([7]; strain ATCC 13932): 4 µM
MIC ([7]; strain ATCC 19111): 4 µM
MIC ([7]; strain ATCC 19112): 2 µM
MIC ([7]; strain ATCC 19114): 0.5 µM
MIC ([7]; strain F4244, no turbidity): 2 µM
MIC ([7]; strain J0161): 4 µM
percentage of gene expression of rpoA (rpoA; 1 μM PTAT): more than 50%
reduction in rpoA gene expression (rpoA; 1 μM PTAT): 50% and 43.7%
percentage of gene expression of rpoA (rpoA; 4 μM PTAT): less than 5%

RXRRXRRXRRXRXB-O-cgatcattcaaa-NH2 [PRXR, anti-rpoA PNA covalently conjugated to the (RXR)4XB CPP]
Log CFU/ml (L. monocytogenes F4244 [1]; 1 µM PNA): 6.87±0.84 Log CFU/ml
Log CFU reduction (L. monocytogenes F4244 [1]; 1 µM PNA): 2.51 Log CFU
Log CFU/ml (L. monocytogenes F4244 [1]; 2 µM PNA): 3.15±0.21 Log CFU/ml
Log CFU reduction (L. monocytogenes F4244 [1]; 2 µM PNA): 6.24 Log CFU
Log CFU/ml (L. monocytogenes F4244 [1]; 4 µM PNA): Cleared
Log CFU reduction (L. monocytogenes F4244 [1]; 4 µM PNA): 9.39 Log CFU
Log CFU/ml (L. monocytogenes F4244 [1]; 8 µM PNA): Cleared
Log CFU reduction (L. monocytogenes F4244 [1]; 8 µM PNA): 9.39 Log CFU
Log CFU/ml (L. monocytogenes F4244 [1]; 16 µM PNA): Cleared
Log CFU reduction (L. monocytogenes F4244 [1]; 16 µM PNA): 9.39 Log CFU
Log CFU/ml (L. monocytogenes F4244 [1]; 32 µM PNA): Cleared
Log CFU reduction (L. monocytogenes F4244 [1]; 32 µM PNA): 9.39 Log CFU
time to complete eradication of Listeria (L. monocytogenes F4244 [3]): ≤ 2 h
bactericidal or bacteriostatic activity (L. monocytogenes F4244 [3]): bactericidal activity
concentration without inhibition of bacterial growth (MRSA USA300): > 16 × MIC
time to complete elimination of starting inoculum (L. monocytogenes F4244 [4]): ≤ 20 min
calcein leakage [8]: did not result in leakage; also recorded: does not permeabilize the bacterial cell membrane
Log CFU/ml ([5]; 2 μM): 4.95 ± 0.07 Log CFU/ml
Log CFU reduction ([5]; 2 μM): 1.78 Log CFU
Log CFU/ml ([5]; 4 μM): 3.079 Log CFU/ml
Log CFU reduction ([5]; 4 μM): 3.65* Log CFU
Log CFU/ml ([5]; 8 μM): complete clearance; also recorded: cleared
Log CFU reduction ([5]; 8 μM): 6.73* Log CFU
Log CFUs/worm ([6]; 16 µM): 2.24±0.99 Log CFUs/worm
Log CFUs reduction ([6]; 16 µM): 1.91 Log CFUs
Log CFUs reduction ([6]; 32 µM): 4.38 Log CFUs
MIC50 [7]: 1 µM
MIC ([7]; strain ATCC 13932): 2 µM
MIC ([7]; strain ATCC 19111): 1 µM
MIC ([7]; strain ATCC 19112): 1 µM
MIC ([7]; strain ATCC 19114): 0.25 µM
MIC ([7]; strain F4244, no turbidity): 1 µM
MIC ([7]; strain J0161): 4 µM

nisin [reference compound]
calcein leakage [8]: more than 72%
